Results as given in ChEMBL document CHEMBL3991601, “The target landscape of clinical kinase drugs” (Science, 2017).
Calls of active or inactive are those of the source. Rule as the data show it, for most assays here: actives have a measured Kd and inactives only a lower limit.

What was measured:
[1] = target: Ephrin type-A receptor 4 (Homo sapiens, UniProt P54764)
[2] = target: Calcium/calmodulin-dependent protein kinase type II subunit gamma (Homo sapiens, UniProt Q13555)
[3] = target: Mitogen-activated protein kinase 8 (Homo sapiens, UniProt P45983)
Sequence of Mitogen-activated protein kinase 8 (P45983 whole entry): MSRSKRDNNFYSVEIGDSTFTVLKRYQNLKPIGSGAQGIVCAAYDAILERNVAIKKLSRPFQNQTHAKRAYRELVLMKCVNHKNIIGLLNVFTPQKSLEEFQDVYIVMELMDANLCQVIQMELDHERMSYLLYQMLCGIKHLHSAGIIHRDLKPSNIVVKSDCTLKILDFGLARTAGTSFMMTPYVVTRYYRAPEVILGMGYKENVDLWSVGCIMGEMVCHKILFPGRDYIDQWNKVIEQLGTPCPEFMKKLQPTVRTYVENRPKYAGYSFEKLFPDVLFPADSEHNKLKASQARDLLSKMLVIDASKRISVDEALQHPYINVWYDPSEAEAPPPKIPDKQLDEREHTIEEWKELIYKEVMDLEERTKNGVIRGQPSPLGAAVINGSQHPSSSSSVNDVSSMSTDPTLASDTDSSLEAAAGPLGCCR

[4] = target: TGF-beta receptor type-2 (Homo sapiens, UniProt P37173)
[5] = target: Tyrosine-protein kinase Fer (Homo sapiens, UniProt P16591)
Sequence of Tyrosine-protein kinase Fer (P16591 whole entry): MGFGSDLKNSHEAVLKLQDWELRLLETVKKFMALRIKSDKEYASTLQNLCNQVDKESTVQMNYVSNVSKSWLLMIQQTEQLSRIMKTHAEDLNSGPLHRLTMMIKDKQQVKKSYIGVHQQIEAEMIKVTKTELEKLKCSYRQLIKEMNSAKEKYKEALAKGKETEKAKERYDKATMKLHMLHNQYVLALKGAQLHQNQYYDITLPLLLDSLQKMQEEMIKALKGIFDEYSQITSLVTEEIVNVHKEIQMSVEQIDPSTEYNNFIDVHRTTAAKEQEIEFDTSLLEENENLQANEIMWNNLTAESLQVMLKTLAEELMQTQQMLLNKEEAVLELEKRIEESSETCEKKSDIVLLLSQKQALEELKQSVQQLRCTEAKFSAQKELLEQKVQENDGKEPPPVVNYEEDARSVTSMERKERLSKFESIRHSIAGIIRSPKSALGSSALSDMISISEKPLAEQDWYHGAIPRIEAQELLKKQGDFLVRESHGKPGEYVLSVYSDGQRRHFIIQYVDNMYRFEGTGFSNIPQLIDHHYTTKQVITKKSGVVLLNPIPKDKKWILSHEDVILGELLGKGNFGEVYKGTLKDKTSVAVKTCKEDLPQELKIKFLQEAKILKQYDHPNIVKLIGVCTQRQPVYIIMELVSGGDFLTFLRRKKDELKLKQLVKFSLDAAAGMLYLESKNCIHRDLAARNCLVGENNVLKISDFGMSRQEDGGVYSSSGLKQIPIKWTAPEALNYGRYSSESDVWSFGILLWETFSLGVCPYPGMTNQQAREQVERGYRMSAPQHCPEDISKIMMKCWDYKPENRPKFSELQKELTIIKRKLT

[6] = target: Serine/threonine-protein kinase pim-1 (Homo sapiens, UniProt P11309)
Sequence of Serine/threonine-protein kinase pim-1 (P11309 whole entry): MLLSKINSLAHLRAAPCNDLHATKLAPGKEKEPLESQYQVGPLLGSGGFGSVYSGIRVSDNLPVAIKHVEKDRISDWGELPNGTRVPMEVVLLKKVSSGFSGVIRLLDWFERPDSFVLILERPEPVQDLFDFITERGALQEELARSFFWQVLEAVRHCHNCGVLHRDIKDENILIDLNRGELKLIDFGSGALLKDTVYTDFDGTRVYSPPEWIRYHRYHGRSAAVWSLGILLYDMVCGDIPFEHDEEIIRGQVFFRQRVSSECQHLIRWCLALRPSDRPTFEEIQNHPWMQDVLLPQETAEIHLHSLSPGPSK

[7] = target: T1, Serine/threonine-protein kinase LATS1 (Homo sapiens, UniProt O95835)
T1 sequence (O95835 whole entry): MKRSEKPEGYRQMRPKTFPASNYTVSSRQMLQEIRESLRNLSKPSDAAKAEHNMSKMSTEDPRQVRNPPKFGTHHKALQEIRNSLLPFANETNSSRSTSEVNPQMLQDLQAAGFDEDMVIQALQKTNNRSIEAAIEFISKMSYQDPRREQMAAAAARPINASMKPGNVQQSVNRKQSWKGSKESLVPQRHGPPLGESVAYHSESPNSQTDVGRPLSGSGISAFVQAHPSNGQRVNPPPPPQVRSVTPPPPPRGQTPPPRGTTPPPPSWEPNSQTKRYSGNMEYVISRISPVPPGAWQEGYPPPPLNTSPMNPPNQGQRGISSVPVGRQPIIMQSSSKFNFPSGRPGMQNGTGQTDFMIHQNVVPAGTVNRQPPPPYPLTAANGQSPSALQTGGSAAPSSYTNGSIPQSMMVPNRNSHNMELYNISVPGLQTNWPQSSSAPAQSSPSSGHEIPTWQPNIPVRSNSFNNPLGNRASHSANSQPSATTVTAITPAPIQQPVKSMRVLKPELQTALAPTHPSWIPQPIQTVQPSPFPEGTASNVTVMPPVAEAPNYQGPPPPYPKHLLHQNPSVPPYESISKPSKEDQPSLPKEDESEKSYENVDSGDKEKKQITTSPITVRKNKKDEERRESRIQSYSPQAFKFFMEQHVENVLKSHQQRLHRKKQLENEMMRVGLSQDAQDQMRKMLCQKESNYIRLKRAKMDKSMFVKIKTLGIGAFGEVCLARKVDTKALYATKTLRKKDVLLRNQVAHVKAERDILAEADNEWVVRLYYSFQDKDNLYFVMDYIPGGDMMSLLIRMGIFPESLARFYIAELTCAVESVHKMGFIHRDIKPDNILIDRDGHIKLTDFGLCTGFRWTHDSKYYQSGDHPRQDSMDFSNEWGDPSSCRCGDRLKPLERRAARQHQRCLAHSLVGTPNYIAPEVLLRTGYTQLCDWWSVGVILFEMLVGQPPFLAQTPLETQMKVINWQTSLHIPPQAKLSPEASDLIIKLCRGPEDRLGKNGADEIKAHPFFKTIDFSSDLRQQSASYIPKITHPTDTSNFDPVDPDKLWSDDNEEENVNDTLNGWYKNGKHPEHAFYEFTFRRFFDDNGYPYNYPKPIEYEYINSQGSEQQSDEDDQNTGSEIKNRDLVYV

[8] = target: Receptor-interacting serine/threonine-protein kinase 2 (Homo sapiens, UniProt O43353)
Sequence of Receptor-interacting serine/threonine-protein kinase 2 (O43353 whole entry): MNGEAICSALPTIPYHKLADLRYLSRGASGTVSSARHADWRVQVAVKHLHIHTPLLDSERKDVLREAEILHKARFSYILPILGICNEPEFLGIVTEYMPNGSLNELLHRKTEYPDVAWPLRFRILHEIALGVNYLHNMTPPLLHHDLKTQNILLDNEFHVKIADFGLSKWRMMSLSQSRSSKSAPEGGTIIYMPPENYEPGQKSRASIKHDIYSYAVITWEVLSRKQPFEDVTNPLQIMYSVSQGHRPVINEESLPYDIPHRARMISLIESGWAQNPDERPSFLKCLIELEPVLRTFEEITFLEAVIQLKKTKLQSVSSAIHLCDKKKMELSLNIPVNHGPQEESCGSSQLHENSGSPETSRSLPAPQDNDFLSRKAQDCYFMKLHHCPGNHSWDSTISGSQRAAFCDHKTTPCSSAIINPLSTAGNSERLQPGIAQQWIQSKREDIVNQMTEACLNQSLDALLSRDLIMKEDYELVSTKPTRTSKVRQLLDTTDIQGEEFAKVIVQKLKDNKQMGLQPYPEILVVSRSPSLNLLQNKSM

[9] = target: T2, Serine/threonine-protein kinase A-Raf (Homo sapiens, UniProt P10398)
T2 sequence (P10398 whole entry): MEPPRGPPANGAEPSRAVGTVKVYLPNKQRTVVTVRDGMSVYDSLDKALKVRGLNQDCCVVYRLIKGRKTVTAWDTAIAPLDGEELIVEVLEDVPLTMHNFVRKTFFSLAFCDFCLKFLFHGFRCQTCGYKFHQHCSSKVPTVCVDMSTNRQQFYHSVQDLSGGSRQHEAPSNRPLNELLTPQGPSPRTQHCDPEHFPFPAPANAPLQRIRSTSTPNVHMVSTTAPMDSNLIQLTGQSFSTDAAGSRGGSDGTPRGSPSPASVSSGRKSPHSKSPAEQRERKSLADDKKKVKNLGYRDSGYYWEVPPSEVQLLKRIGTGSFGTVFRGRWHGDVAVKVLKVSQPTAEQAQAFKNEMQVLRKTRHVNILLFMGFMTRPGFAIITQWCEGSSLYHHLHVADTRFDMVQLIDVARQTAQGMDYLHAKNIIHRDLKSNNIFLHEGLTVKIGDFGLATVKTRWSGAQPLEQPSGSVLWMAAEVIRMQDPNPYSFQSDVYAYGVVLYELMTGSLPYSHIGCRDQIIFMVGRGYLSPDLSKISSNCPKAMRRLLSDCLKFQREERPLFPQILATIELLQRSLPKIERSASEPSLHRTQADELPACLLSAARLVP

[10] = target: Serine/threonine-protein kinase 10 (Homo sapiens, UniProt O94804)
Sequence of Serine/threonine-protein kinase 10 (O94804 whole entry): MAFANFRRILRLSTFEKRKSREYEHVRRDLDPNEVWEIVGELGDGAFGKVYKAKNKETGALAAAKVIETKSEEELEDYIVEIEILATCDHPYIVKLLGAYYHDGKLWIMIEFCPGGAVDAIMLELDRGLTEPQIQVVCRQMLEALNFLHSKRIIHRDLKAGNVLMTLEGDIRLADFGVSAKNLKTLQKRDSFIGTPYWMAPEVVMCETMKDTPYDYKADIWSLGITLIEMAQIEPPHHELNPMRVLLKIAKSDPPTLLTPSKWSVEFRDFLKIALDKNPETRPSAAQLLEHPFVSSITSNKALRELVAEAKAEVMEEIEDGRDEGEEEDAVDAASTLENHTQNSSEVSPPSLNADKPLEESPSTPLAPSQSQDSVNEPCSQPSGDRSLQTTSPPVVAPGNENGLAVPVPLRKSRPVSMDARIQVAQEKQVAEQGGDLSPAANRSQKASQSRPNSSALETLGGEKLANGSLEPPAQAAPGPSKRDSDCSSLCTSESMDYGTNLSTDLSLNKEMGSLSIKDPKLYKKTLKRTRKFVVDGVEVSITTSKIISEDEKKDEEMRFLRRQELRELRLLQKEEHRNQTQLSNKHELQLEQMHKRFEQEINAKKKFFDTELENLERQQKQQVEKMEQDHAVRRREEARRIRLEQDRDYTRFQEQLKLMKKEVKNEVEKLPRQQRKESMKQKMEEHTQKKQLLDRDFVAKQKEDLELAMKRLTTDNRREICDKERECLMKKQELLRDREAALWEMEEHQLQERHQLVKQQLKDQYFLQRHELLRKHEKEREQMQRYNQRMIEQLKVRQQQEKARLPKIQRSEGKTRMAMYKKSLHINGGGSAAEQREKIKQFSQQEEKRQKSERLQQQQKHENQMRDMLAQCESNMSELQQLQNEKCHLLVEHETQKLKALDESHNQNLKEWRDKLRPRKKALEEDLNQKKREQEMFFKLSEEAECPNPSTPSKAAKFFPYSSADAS

[11] = target: T3, Interleukin-1 receptor-associated kinase 3 (Homo sapiens, UniProt Q9Y616)
T3 sequence (Q9Y616 whole entry): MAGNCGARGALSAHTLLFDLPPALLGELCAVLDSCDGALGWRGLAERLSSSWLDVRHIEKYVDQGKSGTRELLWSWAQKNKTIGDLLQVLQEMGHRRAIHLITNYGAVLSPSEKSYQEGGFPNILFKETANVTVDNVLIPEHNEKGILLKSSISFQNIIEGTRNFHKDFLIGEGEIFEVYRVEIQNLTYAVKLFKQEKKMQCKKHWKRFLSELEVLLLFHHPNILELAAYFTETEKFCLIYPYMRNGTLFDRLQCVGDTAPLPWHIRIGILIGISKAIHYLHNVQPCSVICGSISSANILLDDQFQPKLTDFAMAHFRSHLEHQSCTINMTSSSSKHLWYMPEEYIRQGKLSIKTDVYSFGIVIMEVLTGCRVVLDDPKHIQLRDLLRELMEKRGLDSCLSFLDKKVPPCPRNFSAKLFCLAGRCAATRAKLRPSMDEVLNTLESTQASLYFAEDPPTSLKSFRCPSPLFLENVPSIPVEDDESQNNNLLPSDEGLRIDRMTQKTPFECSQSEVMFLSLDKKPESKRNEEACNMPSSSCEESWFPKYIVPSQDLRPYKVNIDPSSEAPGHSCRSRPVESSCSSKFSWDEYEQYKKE

[12] = target: GTP-binding protein 4 (Homo sapiens, UniProt Q9BZE4)
Also: in the data inactive means no Kd found up to 30 µM.

Sequence of Ephrin type-A receptor 4 (P54764 whole entry): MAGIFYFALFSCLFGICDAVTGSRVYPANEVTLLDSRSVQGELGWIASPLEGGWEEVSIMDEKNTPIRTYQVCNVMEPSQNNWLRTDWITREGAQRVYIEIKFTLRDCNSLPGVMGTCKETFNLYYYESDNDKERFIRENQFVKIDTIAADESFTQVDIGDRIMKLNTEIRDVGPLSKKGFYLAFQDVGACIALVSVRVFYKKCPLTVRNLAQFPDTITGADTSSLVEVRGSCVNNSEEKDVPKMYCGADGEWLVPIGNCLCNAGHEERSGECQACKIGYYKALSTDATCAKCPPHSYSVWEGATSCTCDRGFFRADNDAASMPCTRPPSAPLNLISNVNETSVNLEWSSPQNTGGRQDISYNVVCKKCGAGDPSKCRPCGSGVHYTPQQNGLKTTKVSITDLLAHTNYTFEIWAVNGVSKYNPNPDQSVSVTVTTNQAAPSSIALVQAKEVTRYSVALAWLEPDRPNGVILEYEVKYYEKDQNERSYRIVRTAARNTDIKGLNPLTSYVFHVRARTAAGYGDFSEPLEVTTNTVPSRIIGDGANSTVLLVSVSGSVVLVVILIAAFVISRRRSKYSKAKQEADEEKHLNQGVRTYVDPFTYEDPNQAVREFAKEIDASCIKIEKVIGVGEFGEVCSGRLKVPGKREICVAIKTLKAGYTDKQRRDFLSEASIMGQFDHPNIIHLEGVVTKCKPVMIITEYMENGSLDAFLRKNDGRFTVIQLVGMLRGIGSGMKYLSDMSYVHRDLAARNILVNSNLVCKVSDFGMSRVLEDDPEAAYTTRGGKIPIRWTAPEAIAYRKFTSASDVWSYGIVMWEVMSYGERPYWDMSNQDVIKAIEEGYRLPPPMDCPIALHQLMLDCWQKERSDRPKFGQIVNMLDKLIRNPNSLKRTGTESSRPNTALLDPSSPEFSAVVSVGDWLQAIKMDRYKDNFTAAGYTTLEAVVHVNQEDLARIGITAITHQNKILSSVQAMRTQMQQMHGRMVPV
Sequence of Calcium/calmodulin-dependent protein kinase type II subunit gamma (Q13555 whole entry): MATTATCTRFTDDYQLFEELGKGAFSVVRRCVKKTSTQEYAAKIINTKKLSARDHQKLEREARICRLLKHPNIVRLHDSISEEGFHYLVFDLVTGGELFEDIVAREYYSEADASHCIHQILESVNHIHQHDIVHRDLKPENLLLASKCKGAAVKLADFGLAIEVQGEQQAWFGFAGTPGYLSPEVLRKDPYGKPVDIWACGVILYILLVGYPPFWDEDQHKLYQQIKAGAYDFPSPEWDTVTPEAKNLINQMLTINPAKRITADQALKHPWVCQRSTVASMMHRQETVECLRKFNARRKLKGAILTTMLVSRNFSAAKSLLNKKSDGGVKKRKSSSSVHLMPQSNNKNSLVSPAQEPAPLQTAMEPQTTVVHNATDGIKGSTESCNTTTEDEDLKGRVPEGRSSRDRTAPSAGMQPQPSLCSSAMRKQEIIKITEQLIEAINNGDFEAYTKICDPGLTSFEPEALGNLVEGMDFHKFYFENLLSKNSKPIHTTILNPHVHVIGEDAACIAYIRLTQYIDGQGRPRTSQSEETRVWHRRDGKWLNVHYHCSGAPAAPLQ

Row | Kd [1] | Kd [2] | Kd [3] | Kd [4] | Kd [5] | Kd [6] | Kd [7] | Kd [8] | Kd [9] | Kd [10] | Kd [11] | Kd [12] | Structure (SMILES)
1 | > 30 µM (inactive) | > 30 µM (inactive) | > 30 µM (inactive) | > 30 µM (inactive) | > 30 µM (inactive) | > 30 µM (inactive) | > 30 µM (inactive) | > 30 µM (inactive) | > 30 µM (inactive) | > 30 µM (inactive) | > 30 µM (inactive) |  | C[C@@H](Nc1cc(F)cc(F)c1)c1cc(C(=O)N(C)C)cc2c(=O)cc(N3CCOCC3)oc12 [AZD-8186]
2 | > 30 µM (inactive) | > 30 µM (inactive) | > 30 µM (inactive) | > 30 µM (inactive) | > 30 µM (inactive) | > 30 µM (inactive) | > 30 µM (inactive) | > 30 µM (inactive) | > 30 µM (inactive) | > 30 µM (inactive) | > 30 µM (inactive) | > 30 µM (inactive) | Cc1cc([C@@H](C)Nc2ccccc2C(=O)O)c2nc(N3CCOCC3)cc(=O)n2c1 [AZD-6482]
3 | > 30 µM (inactive) | 0.243 µM (active) | > 30 µM (inactive) | > 30 µM (inactive) | > 30 µM (inactive) | > 30 µM (inactive) | > 30 µM (inactive) | > 30 µM (inactive) | > 30 µM (inactive) | > 30 µM (inactive) | > 30 µM (inactive) | > 30 µM (inactive) | CCS(=O)(=O)N1CC(CC#N)(n2cc(-c3ncnc4[nH]ccc34)cn2)C1 [BARICITINIB]
4 | > 30 µM (inactive) | > 30 µM (inactive) | 0.844 µM (active) | > 30 µM (inactive) | > 30 µM (inactive) | > 30 µM (inactive) | 3.79 µM (active) | > 30 µM (inactive) | > 30 µM (inactive) | > 30 µM (inactive) | > 30 µM (inactive) | > 30 µM (inactive) | O=C(Nc1ccc(-c2ccnc(Nc3ccc(N4CCOCC4)cc3)n2)cc1)C1CCCN1 (configuration not stated) [XL-019]
5 | > 30 µM (inactive) | > 30 µM (inactive) | > 30 µM (inactive) | > 30 µM (inactive) | > 30 µM (inactive) | > 30 µM (inactive) | > 30 µM (inactive) | > 30 µM (inactive) | > 30 µM (inactive) | > 30 µM (inactive) | > 30 µM (inactive) | > 30 µM (inactive) | CNS(=O)(=O)Nc1nccc(Cc2c(C)c3ccc(Oc4ncccn4)cc3oc2=O)c1F [AVUTOMETINIB]
6 | > 30 µM (inactive) | > 30 µM (inactive) | > 30 µM (inactive) | 3.4 µM (active) | > 30 µM (inactive) | > 30 µM (inactive) | > 30 µM (inactive) | 0.427 µM (active) | 2.14 µM (active) | > 30 µM (inactive) | > 30 µM (inactive) | > 30 µM (inactive) | CCCS(=O)(=O)Nc1ccc(F)c(C(=O)c2c[nH]c3ncc(-c4ccc(Cl)cc4)cc23)c1F [VEMURAFENIB]
7 | > 30 µM (inactive) | > 30 µM (inactive) | > 30 µM (inactive) | > 30 µM (inactive) | > 30 µM (inactive) | > 30 µM (inactive) | > 30 µM (inactive) | > 30 µM (inactive) | > 30 µM (inactive) | 8.44 µM (active) | > 30 µM (inactive) | > 30 µM (inactive) | Cc1cc2c(F)c(Oc3ncnn4cc(OC[C@@H](C)OC(=O)[C@H](C)N)c(C)c34)ccc2[nH]1 [BRIVANIB ALANINATE]
8 | > 30 µM (inactive) | > 30 µM (inactive) | > 30 µM (inactive) | > 30 µM (inactive) | > 30 µM (inactive) | > 30 µM (inactive) | > 30 µM (inactive) | > 30 µM (inactive) | > 30 µM (inactive) | > 30 µM (inactive) | > 30 µM (inactive) | > 30 µM (inactive) | Cc1ccc(S(=O)(=O)Nc2nc3ccccc3nc2Nc2ccc3nsnc3c2)cc1
9 | > 30 µM (inactive) | > 30 µM (inactive) | > 30 µM (inactive) | > 30 µM (inactive) | > 30 µM (inactive) | > 30 µM (inactive) | > 30 µM (inactive) | > 30 µM (inactive) | > 30 µM (inactive) | > 30 µM (inactive) | > 30 µM (inactive) | > 30 µM (inactive) | Cc1c(F)cc(C(=O)NC2CC2)cc1-c1ccc(C(=O)NCC(C)(C)C)cn1 [LOSMAPIMOD]
10 | > 30 µM (inactive) | 1.41 µM (active) | > 30 µM (inactive) | > 30 µM (inactive) | 0.363 µM (active) | > 30 µM (inactive) | > 30 µM (inactive) | > 30 µM (inactive) | > 30 µM (inactive) | 23.7 µM (active) | > 30 µM (inactive) | 0.009 µM | COc1cc(N2CCC(N3CCN(C)CC3)CC2)ccc1Nc1ncnc(Nc2ccccc2S(=O)(=O)C(C)C)n1 [ASP-3026]
11 | > 30 µM (inactive) | > 30 µM (inactive) | > 30 µM (inactive) |  | > 30 µM (inactive) | > 30 µM (inactive) | > 30 µM (inactive) | > 30 µM (inactive) | > 30 µM (inactive) | > 30 µM (inactive) | > 30 µM (inactive) |  | CCn1c(=O)c(-c2cc[nH]n2)cc2c(C)nc(N)nc21 [VOXTALISIB]
12 | > 30 µM (inactive) | > 30 µM (inactive) | 1.96 µM (active) | > 30 µM (inactive) | 3.66 µM (active) | > 30 µM (inactive) | > 30 µM (inactive) | > 30 µM (inactive) | > 30 µM (inactive) |  | 0.035 µM (active) | > 30 µM (inactive) | C1=C/COCc2cc(ccc2OCCN2CCCC2)Nc2nccc(n2)-c2cccc(c2)COC/1 [PACRITINIB]

Row | Structure (SMILES) | Kd [1] | Kd [2] | Kd [3] | Kd [4] | Kd [5] | Kd [6] | Kd [7] | Kd [8] | Kd [9] | Kd [10] | Kd [11] | Kd [12]
13 | C=CC(=O)N1CCC(Oc2cc3c(Nc4ccc(Cl)c(Cl)c4F)ncnc3cc2OC)CC1 [POZIOTINIB] | 7.06 µM (active) | > 30 µM (inactive) | > 30 µM (inactive) | > 30 µM (inactive) | > 30 µM (inactive) | > 30 µM (inactive) | > 30 µM (inactive) | 0.048 µM (active) | > 30 µM (inactive) | > 30 µM (inactive) | > 30 µM (inactive) | > 30 µM (inactive)
